The values below are quoted from earlier work in patent US5043107A, “Preparation small unilamellar vesicles including polyene antifungal antibiotics” (Vestar Research, Inc., priority 1989, dated 1991).

For data set [1] the following is noted: in vivo.
For data set [2] the following is noted: Tremblay et al.
The conditions of data set [3]: mammals; clinical use at therapeutic dose levels.

For liposomal Amphotericin B, in data set [1], the host toxicity entry is recorded as “decreased host toxicity”.

For the compound `C[C@@H]1[C@H](O)[C@@H](C)/C=C/C=C/C=C/C=C/C=C/C=C/C=C/[C@H](O[C@@H]2O[C@H](C)[C@@H](O)[C@H](N)[C@@H]2O)C[C@@H]2O[C@](O)(C[C@@H](O)C[C@@H](O)[C@H](O)CC[C@@H](O)C[C@@H](O)CC(=O)O[C@H]1C)C[C@H](O)[C@H]2C(=O)O` [Amphotericin B, amphotericin B], the “acute 50% lethal dose (LD50)” value in data set [2] is 2.3 mg/kg. The toxicity entry in data set [3] is “acute hemolytic crisis and eventual kidney failure”.
